The results in this text go back to US5045302A, “Ligands and cationic complexes thereof with technetium-99m” (priority 1988, dated 1991).

A short description of the series: Rat biodistribution of Tc-99m complexes.

Take `CCOCCP(CCOCC)CCP(CCOCC)CCOCC` [Compound 1, (EtOC2 H4)2 P--C2 H4 --P(C2 H4 OEt)2]: under “2 min p.i.”, the Blood is listed as 2.25 % Injected dose/organ, the Heart was 1.66 % Injected dose/organ, the “Heart/Blood Counts/Gram Ratio” value was determined as 10.5 and the “Heart/Liver Counts/Gram Ratio” value is listed as 1.52. This compound also had a Liver (2 min p.i.) of 14.1 % Injected dose/organ. Under “60 min p.i.”, the Blood came out at 0.28 % Injected dose/organ, the Heart is recorded as 1.68 % Injected dose/organ, the “Heart/Blood Counts/Gram Ratio” value was 86.4 and the “Heart/Liver Counts/Gram Ratio” value was 14.4. The Liver (60 min p.i.) turned out to be 1.62 % Injected dose/organ.

Consider `COCCP(CCOC)CCP(CCOC)CCOC` [Compound 2], for which, under “2 min p.i.”, the Blood was determined as 19.85 % Injected dose/organ, the Heart is 0.66 % Injected dose/organ, the “Heart/Blood Counts/Gram Ratio” value came to 0.44 and the “Heart/Liver Counts/Gram Ratio” value is 1.57. Under “2 min p.i.”, this compound gave a Liver of 5.90 % Injected dose/organ. Under “60 min p.i.”, the Blood is listed as 0.54 % Injected dose/organ, the Heart worked out at 0.17 % Injected dose/organ, the “Heart/Blood Counts/Gram Ratio” value was determined as 5.4 and the “Heart/Liver Counts/Gram Ratio” value amounted to 1.17. The same compound returned a Liver (60 min p.i.) of 2.37 % Injected dose/organ.

`CCOCCCP(CCCOCC)CCP(CCCOCC)CCCOCC` [Compound 4]: for the setting “2 min p.i.”, the Blood was 7.46 % Injected dose/organ, the Heart worked out at 1.00 % Injected dose/organ, the “Heart/Blood Counts/Gram Ratio” value is 1.96 and the “Heart/Liver Counts/Gram Ratio” value stood at 0.81. The same compound showed a Liver (2 min p.i.) of 18.8 % Injected dose/organ. In addition, under “60 min p.i.”, the Blood stood at 0.73 % Injected dose/organ, the Heart was 0.96 % Injected dose/organ, the “Heart/Blood Counts/Gram Ratio” value is given as 20.0 and the “Heart/Liver Counts/Gram Ratio” value was found to be 2.13. Besides, the Liver (60 min p.i.) turned out to be 6.96 % Injected dose/organ.

In the case of `CCOCP(CCP(COCC)COCC)COCC` [Compound 5], under “2 min p.i.”, the Blood came out at 12.4 % Injected dose/organ, the Heart was 0.54 % Injected dose/organ, the “Heart/Blood Counts/Gram Ratio” value was found to be 0.68 and the “Heart/Liver Counts/Gram Ratio” value is reported as 0.20. Under “2 min p.i.”, this compound showed a Liver of 33.1 % Injected dose/organ. Where the note is “60 min p.i.”, the Blood was 1.63 % Injected dose/organ, the Heart is recorded as 0.27 % Injected dose/organ, the “Heart/Blood Counts/Gram Ratio” value was 2.6 and the “Heart/Liver Counts/Gram Ratio” value is on record as 0.37. Moreover, where the note is “60 min p.i.”, the Liver is given as 8.85 % Injected dose/organ.

Take `CCOC=CP(C=COCC)CCP(C=COCC)C=COCC` [Compound 6]: for the setting “2 min p.i.”, the Blood is given as 15.6 % Injected dose/organ, the Heart worked out at 0.58 % Injected dose/organ, the “Heart/Blood Counts/Gram Ratio” value is 0.61 and the “Heart/Liver Counts/Gram Ratio” value is on record as 0.18. Also, under “2 min p.i.”, the Liver worked out at 44.3 % Injected dose/organ. Moreover, for the setting “60 min p.i.”, the Blood turned out to be 3.26 % Injected dose/organ, the Heart came to 0.46 % Injected dose/organ, the “Heart/Blood Counts/Gram Ratio” value amounted to 2.2 and the “Heart/Liver Counts/Gram Ratio” value came to 0.19. Besides, the Liver (60 min p.i.) amounted to 30.6 % Injected dose/organ.

`CCOCCOCCP(CCOCCOCC)CCP(CCOCCOCC)CCOCCOCC` [Compound 8]: for the setting “2 min p.i.”, the Blood is listed as 11.0 % Injected dose/organ, the Heart is 0.54 % Injected dose/organ, the “Heart/Blood Counts/Gram Ratio” value was determined as 0.72 and the “Heart/Liver Counts/Gram Ratio” value was 0.41. The Liver (2 min p.i.) was 19.0 % Injected dose/organ. For the same compound, for the setting “60 min p.i.”, the Blood was 1.69 % Injected dose/organ, the Heart was found to be 0.42 % Injected dose/organ, the “Heart/Blood Counts/Gram Ratio” value worked out at 4.0 and the “Heart/Liver Counts/Gram Ratio” value stood at 0.46. Besides, the Liver (60 min p.i.) is recorded as 12.0 % Injected dose/organ.

Consider `FC(F)(F)COCCCP(CCCOCC(F)(F)F)CCP(CCCOCC(F)(F)F)CCCOCC(F)(F)F` [Compound 10], for which, for the setting “2 min p.i.”, the Blood worked out at 40.5 % Injected dose/organ, the Heart was 0.43 % Injected dose/organ, the “Heart/Blood Counts/Gram Ratio” value turned out to be 0.17 and the “Heart/Liver Counts/Gram Ratio” value came out at 0.16. Under “2 min p.i.”, the Liver turned out to be 35.2 % Injected dose/organ. Further, where the note is “60 min p.i.”, the Blood is recorded as 7.59 % Injected dose/organ, the Heart is reported as 0.14 % Injected dose/organ, the “Heart/Blood Counts/Gram Ratio” value turned out to be 0.3 and the “Heart/Liver Counts/Gram Ratio” value came out at 0.04. The compound further showed a Liver (60 min p.i.) of 48.8 % Injected dose/organ.

For the compound `COC(C)CP(CCP(CC(C)OC)CC(C)OC)CC(C)OC` (stereo not drawn) [Compound 11], under “2 min p.i.”, the Blood was 9.45 % Injected dose/organ, the Heart is 0.31 % Injected dose/organ, the “Heart/Blood Counts/Gram Ratio” value came to 1.27 and the “Heart/Liver Counts/Gram Ratio” value worked out at 0.57. This compound also returned a Liver (2 min p.i.) of 20.3 % Injected dose/organ. Further, where the note is “60 min p.i.”, the Blood was determined as 1.93 % Injected dose/organ, the Heart came to 0.62 % Injected dose/organ, the “Heart/Blood Counts/Gram Ratio” value was determined as 5.70 and the “Heart/Liver Counts/Gram Ratio” value turned out to be 0.75. For the setting “60 min p.i.”, this compound showed a Liver of 12.0 % Injected dose/organ.

Consider `CCC(CP(CCP(CC(CC)OC)CC(CC)OC)CC(CC)OC)OC` (stereo not drawn) [Compound 12], for which, under “2 min p.i.”, the Blood came to 11.7 % Injected dose/organ, the Heart was found to be 0.70 % Injected dose/organ, the “Heart/Blood Counts/Gram Ratio” value is 1.04 and the “Heart/Liver Counts/Gram Ratio” value came out at 0.39. Moreover, the Liver (2 min p.i.) came out at 25.2 % Injected dose/organ. Further, under “60 min p.i.”, the Blood is given as 1.63 % Injected dose/organ, the Heart came out at 0.48 % Injected dose/organ, the “Heart/Blood Counts/Gram Ratio” value was found to be 4.7 and the “Heart/Liver Counts/Gram Ratio” value is given as 0.63. For the setting “60 min p.i.”, the Liver is reported as 9.72 % Injected dose/organ.

For the compound `CCOC(C)CP(CCP(CC(C)OCC)CC(C)OCC)CC(C)OCC` (stereo not drawn) [Compound 13], for the setting “2 min p.i.”, the Blood amounted to 7.17 % Injected dose/organ, the Heart is recorded as 1.21 % Injected dose/organ, the “Heart/Blood Counts/Gram Ratio” value is reported as 2.54 and the “Heart/Liver Counts/Gram Ratio” value amounted to 0.70. The same compound had a Liver (2 min p.i.) of 22.0 % Injected dose/organ. For the setting “60 min p.i.”, the Blood was found to be 1.77 % Injected dose/organ, the Heart came out at 0.96 % Injected dose/organ, the “Heart/Blood Counts/Gram Ratio” value was 7.9 and the “Heart/Liver Counts/Gram Ratio” value is listed as 1.25. For the same compound, the Liver (60 min p.i.) was 10.6 % Injected dose/organ.

On to `COCC(C)CP(CCP(CC(C)COC)CC(C)COC)CC(C)COC` (stereo not drawn) [Compound 14], for which, for the setting “2 min p.i.”, the Blood is 15.4 % Injected dose/organ, the Heart came out at 0.41 % Injected dose/organ, the “Heart/Blood Counts/Gram Ratio” value was 0.41 and the “Heart/Liver Counts/Gram Ratio” value is listed as 0.98. Besides, the Liver (2 min p.i.) was 5.80 % Injected dose/organ. For the same compound, under “60 min p.i.”, the Blood is 1.02 % Injected dose/organ, the Heart was 0.05 % Injected dose/organ, the “Heart/Blood Counts/Gram Ratio” value was 0.7 and the “Heart/Liver Counts/Gram Ratio” value is on record as 0.39. This compound displayed a Liver (60 min p.i.) of 1.54 % Injected dose/organ.

On to `COC(C)CCP(CCC(C)OC)CCP(CCC(C)OC)CCC(C)OC` (stereo not drawn) [Compound 15], for which, for the setting “2 min p.i.”, the Blood was found to be 12.2 % Injected dose/organ, the Heart is reported as 0.62 % Injected dose/organ, the “Heart/Blood Counts/Gram Ratio” value amounted to 0.70 and the “Heart/Liver Counts/Gram Ratio” value was 1.01. Besides, the Liver (2 min p.i.) is given as 8.22 % Injected dose/organ. For the same compound, where the note is “60 min p.i.”, the Blood was 0.67 % Injected dose/organ, the Heart turned out to be 0.51 % Injected dose/organ, the “Heart/Blood Counts/Gram Ratio” value is 9.4 and the “Heart/Liver Counts/Gram Ratio” value was found to be 2.48. The Liver (60 min p.i.) was determined as 2.24 % Injected dose/organ.

For the compound `COC(C)(C)CCP(CCP(CCC(C)(C)OC)CCC(C)(C)OC)CCC(C)(C)OC` [Compound 16], for the setting “2 min p.i.”, the Blood was determined as 11.4 % Injected dose/organ, the Heart is 0.79 % Injected dose/organ, the “Heart/Blood Counts/Gram Ratio” value worked out at 1.01 and the “Heart/Liver Counts/Gram Ratio” value stood at 0.58. Further, the Liver (2 min p.i.) stood at 19.2 % Injected dose/organ. Moreover, for the setting “60 min p.i.”, the Blood turned out to be 1.58 % Injected dose/organ, the Heart came to 0.54 % Injected dose/organ, the “Heart/Blood Counts/Gram Ratio” value was determined as 4.69 and the “Heart/Liver Counts/Gram Ratio” value is on record as 0.96. Also, the Liver (60 min p.i.) stood at 7.71 % Injected dose/organ.

In the case of `COCC(COC)CP(CCP(CC(COC)COC)CC(COC)COC)CC(COC)COC` [Compound 17], for the setting “2 min p.i.”, the Blood is listed as 5.86 % Injected dose/organ, the Heart was determined as 1.14 % Injected dose/organ, the “Heart/Blood Counts/Gram Ratio” value is recorded as 2.99 and the “Heart/Liver Counts/Gram Ratio” value turned out to be 0.92. The Liver (2 min p.i.) turned out to be 17.1 % Injected dose/organ. Further, where the note is “60 min p.i.”, the Blood amounted to 1.03 % Injected dose/organ, the Heart was determined as 0.86 % Injected dose/organ, the “Heart/Blood Counts/Gram Ratio” value is recorded as 13.9 and the “Heart/Liver Counts/Gram Ratio” value was determined as 1.59. Further, the Liver (60 min p.i.) is given as 7.88 % Injected dose/organ.

Regarding `CCOCC(COCC)CP(CCP(CC(COCC)COCC)CC(COCC)COCC)CC(COCC)COCC` [Compound 18], where the note is “2 min p.i.”, the Blood is 24.2 % Injected dose/organ, the Heart is 0.58 % Injected dose/organ, the “Heart/Blood Counts/Gram Ratio” value was 0.37 and the “Heart/Liver Counts/Gram Ratio” value stood at 0.24. Where the note is “2 min p.i.”, this compound showed a Liver of 35.1 % Injected dose/organ. Moreover, where the note is “60 min p.i.”, the Blood was found to be 5.78 % Injected dose/organ, the Heart was 0.41 % Injected dose/organ, the “Heart/Blood Counts/Gram Ratio” value was determined as 1.0 and the “Heart/Liver Counts/Gram Ratio” value is 0.14. The compound also registered a Liver (60 min p.i.) of 36.0 % Injected dose/organ.
